Assay: Salt screen, comments on water content / hydration versus humidity
Assay type: physicochemical
Procedure: Experiments to form salts were performed and evaluated using 45 different acids and bases and 15 different solvents, either alone or in some combination, which are listed in Table 1 below, and notable results of those experiments are presented in Table 2 below. L-arginine Saccharin Methyl isobutyl ketone

Compound | level of hydration over humidity range (Additional Comments) (0.5 equiv, polymorph formed at higher (>70° C.) temperature compared with polymorph formed at ambient temp) | hygroscopicity (Additional Comments) (1.0 equiv, water, highly variable water content based on humidity)
O=C(O)[C@H](O)[C@@H](O)C(=O)O [L-Tartaric Acid] | temperature had a more stable level | –
Cc1nc(N2CC([C@H]3CCCN([C@H]4C[C@](C)(C(=O)[O-])C4)C3)C2)nc(N[C@H](C)c2ccc(Cl)cc2Cl)c1Cl.[Na+] [NaOH, (1R,3r)-3-((R)-3-(1-(5-chloro-4-(((R)-1-(2,4-dichlorophenyl)ethyl)amino)-6-methylpyrimidin-2-yl)azetidin-3-yl)piperidin-1-yl)-1-methylcyclobutane-1-carboxylic acid, sodium salt] | – | Highly hydroscopic (highly variable

From patent publication US20250034115A1, “CRYSTALLINE FORMS OF C-C CHEMOKINE RECEPTOR TYPE 4 ANTAGONIST AND USES THEREOF” (RAPT THERAPEUTICS, INC., priority 2023, published 2025)
